Read-outs that look alike come from different tables or passages of the source.
How the values were obtained:
[1] = system: P. falciparum metabolites; assay: LC-MS metabolomic profiling (lipids and polar metabolites); assay type: cell-based, Plasmodium falciparum; settings: treated parasites, second IEC (72 hours after treatment)
[2] = system: P. knowlesi YH1 rhesus erythrocyte infecting parasites; assay: P. knowlesi in vitro IC50 assay (flow cytometry), rhesus erythrocytes; assay type: cell-based; settings: Plasmodium knowlesi, in Macaca mulatta
Procedure: Fig. 5. In vivo and broad-spectrum antimalarial efficacy of MED6-189. (A) The in vivo efficacy of MED6-189 was evaluated in a humanized mouse model infected with P. falciparum (blue) compared with untreated controls (black). […] The graphs illustrate the logarithmic growth of parasites (y axis) in response to varying drug concentrations (x axis). Error bars represent standard deviations from two independent experiments conducted in triplicate. The regression line is derived from a nonlinear regression analysis (variable slope with four parameters, least squares fit). (C) Proposed mode of action of MED6-189 in P. falciparum–infected erythrocytes. […]
Detailed information on materials and methods is available in the supplementary materials. […] P. knowlesi assays were quantitatively measured by flow cytometry using SYBR Green I and Mitrotracker Deep Red, as previously described ([84], [85]), on a Beckman Coulter CytoFLEX. […]
(§1) P. falciparum in vitro SYBR green fluorescence-based assays The anti-malarial activity of individual analogues were evaluated in-vitro against P. falciparum 3D7 (MRA-102, drug […]
green-I based fluorescence assay. Parasite growth rate and stages of development were determined via microscopy through Giemsa-stained smears of the cultures. […]

[3] = system: S. cerevisiae strains with overexpressed or repressed Sec13p; assay type: cell-based, Saccharomyces cerevisiae; settings: Tet-off promoter, doxycycline, vs WT yeast
Description: (§2) Fig. 4. […] (C) Schematic representation of the CRISPR-Cas9–based replacement strategy used to introduce a deletion of the targeted repeat regions in the PfSec13 gene. The insertion was achieved through overlap extension polymerase chain reaction (PCR) of fragments directly upstream and downstream of the target segment and subsequently formed by primer overlap extension PCR to replicate the desired deletion. […] (D) Predicted structure of the SEC13 protein highlighting the seven amino acid tandem repeat regions targeted for deletion (red). […] Data were analyzed using a Sigmoidal, 4PL (X represents concentration, n = 3, nonlinear regression, CI: 95%).
PCR amplification and introduced into an episomal E. coli/yeast shuttle vector, pRS425, by using an in-fusion cloning kit (Takara Bio USA, Inc) and the resulting pRS425-SEC13 plasmid was transformed into the BY4741 yeast strain. To swiftly repress the SEC13 gene, we utilized the tet-off system. This involved substituting the native SEC13 gene promoter with a tetracycline (tet)- regulatable counterpart, while leaving the original SEC13 open reading frame intact. The yeast

[4] = system: P. falciparum; assay: Drug-drug interaction (fractional inhibitory concentration, isobologram) assay; assay type: cell-based, Plasmodium falciparum
Description: Fig. 2. […] Nuclei are stained with 4’,6-diamidino-2-phenylindole (DAPI; blue). […] (B) Dose-dependent interactions between MED6-189 (blue) and various antimalarials with known mechanisms of action (red). […] The regression line represents a nonlinear regression (variable slope with four parameters), with significant differences considered if P < 0.05. […] Isobologram curves are expected to be parallel to the diagonal for additive drug pairs, concave for synergistic drug pairs, and convex for antagonistic drug pairs. […] The analysis was performed using a two-way ANOVA, n = 3, with P < 0.05 significance.

[5] = system: HeLa; assay: Human cell line activity, HeLa; assay type: cell-based; settings: read-out: IC50 (µM) HeLa
[6] = system: PfSec13-mut transgenic clones (3D7); assay: Parasite survival assay, CRISPR-Cas9 PfSec13-mut transgenic clones; assay type: cell-based; settings: Plasmodium falciparum
Description: as §2, §1
green-I based fluorescence assay. Parasite growth rate and stages of development were determined via microscopy through Giemsa-stained smears of the cultures. Serial dilutions of the compounds ranging from 10uM-0.5nM were prepared in 96-well plates (Corning, Costar 3904) followed by […]
hematocrit added to each well. Eight wells were treated with vehicle control (DMSO) as control.
Plates were incubated in a modular incubation chamber (Billups-Rothenberg, Del Mar, CA)

SMILES: [C-]#[N+][C@]1(C)CC[C@H]2[C@@H]([C@@H](C(C)C)CC[C@]2(C)[N+]#[C-])[C@H]1O [MED6-189]
- increase in lysophosphatidylcholine (LPC) steady-state levels [1]: ~3.5 fold
- IC50 [2]: 0.276 ± 0.022 µM
- increase in susceptibility on Sec13p repression [3]: ~ 5.5 fold
- FIC score ([4]; MED6-189 in combination with atovaquone (additive)): 0.91 ± 0.2
- FIC score ([4]; MED6-189 in combination with chloroquine (additive)): 1.71 ± 0.4
- IC50 [5]: 9.6 µM
- IC50 ([6]; 3D7, Sec13 mut-A): 0.0598 µM
- IC50 ([6]; 3D7, Sec13 mut-B): 0.0535 µM
- IC50 ([6]; 3D7, Sec13 mut-C): 0.0495 µM
- IC50 ([6]; 3D7, Sec13 mut-D): 0.0729 µM
- IC50 ([6]; 3D7, read-out: IC50 range, four PfSec13-mut transgenic clones): 0.05 to 0.073 µM
